From ChEMBL document CHEMBL1126300, “Quinoline antifolate thymidylate synthase inhibitors: variation of the C2- and C4-substituents” (J Med Chem, 1992) come the findings set out here.

One assay has as its target Thymidylate synthase (Mus musculus, UniProt P07607). In words: In vitro inhibitory activity against thymidylate synthase from L1210 mouse leukemia cells. The class given is cell-based.
In a further assay the test system is L1210. In words: In vitro inhibition of L1210 mouse leukemia cell growth in culture. The class given is functional, cell-based.
In a further assay the test system is WIL2. Put plainly: Inhibition of human derived cell line W1-L2 cell proliferation. The class given is functional, cell-based.

Sequence of Thymidylate synthase (P07607 whole entry): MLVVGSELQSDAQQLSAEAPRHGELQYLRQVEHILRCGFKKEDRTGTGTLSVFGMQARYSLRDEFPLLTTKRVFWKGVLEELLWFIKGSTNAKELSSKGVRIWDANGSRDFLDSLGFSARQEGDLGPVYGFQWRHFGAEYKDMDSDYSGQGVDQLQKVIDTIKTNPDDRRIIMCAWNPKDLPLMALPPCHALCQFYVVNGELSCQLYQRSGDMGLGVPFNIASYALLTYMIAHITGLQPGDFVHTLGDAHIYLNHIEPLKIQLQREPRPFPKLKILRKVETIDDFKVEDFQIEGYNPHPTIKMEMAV

As usually defined, the IC50 is the midpoint of a concentration-inhibition curve. Read a low IC50 as greater potency. On to `CCN(Cc1ccc2nccc(Cl)c2c1)c1ccc(C(=O)N[C@@H](CCC(=O)O)C(=O)O)cc1`, for which the IC50 on Thymidylate synthase was 1130 nM; with L1210 it was 30000 nM. In the case of `C#CCN(Cc1ccc2nc(C(=O)O)cc(Cl)c2c1)c1ccc(C(=O)N[C@@H](CCC(=O)O)C(=O)O)cc1`, the IC50 is 31000 nM on Thymidylate synthase and above 100000 nM in the assay with L1210.

In the case of `C#CCN(Cc1ccc2nc(Cl)ccc2c1)c1ccc(C(=O)N[C@@H](CCC(=O)O)C(=O)O)cc1`, the IC50 against Thymidylate synthase was 2600 nM; in the assay with L1210, above 100000 nM. As for `C#CCN(Cc1ccc2nc(N)cc(Cl)c2c1)c1ccc(C(=O)N[C@@H](CCC(=O)O)C(=O)O)cc1`, the IC50 against Thymidylate synthase worked out at 96 nM; in the assay with L1210 it was 11000 nM. With `C#CCN(Cc1ccc2nc(C)cc(Cl)c2c1)c1ccc(C(=O)N[C@@H](CCC(=O)O)C(=O)O)cc1`, the IC50 at Thymidylate synthase was determined as 250 nM; with L1210 it was 8000 nM.

`C#CCN(Cc1ccc2nc(C)cc(SC)c2c1)c1ccc(C(=O)N[C@@H](CCC(=O)O)C(=O)O)cc1`: the concentration for half-maximal inhibition (IC50) on Thymidylate synthase was determined as 8900 nM; with L1210 it was 100000 nM. In the case of `C#CCN(Cc1ccc2nc(CF)cc(Cl)c2c1)c1ccc(C(=O)N[C@@H](CCC(=O)O)C(=O)O)cc1`, the IC50 against Thymidylate synthase is 620 nM; in the assay with L1210, above 100000 nM.

For `C#CCN(Cc1ccc2[nH]c(N)nc(=O)c2c1)c1ccc(C(=O)N[C@@H](CCC(=O)O)C(=O)O)cc1`, in the assay on WIL2, the IC50 was 440 nM. With `C#CCN(Cc1ccc2nc(C)cc(Cl)c2c1)c1ccc(C(=O)N[C@@H](CCC(=O)O)C(=O)O)c(F)c1`, the IC50 came to 66 nM at Thymidylate synthase and 420 nM in the assay on L1210. On to `C#CCN(Cc1ccc2nc(C(N)=O)cc(Cl)c2c1)c1ccc(C(=O)N[C@@H](CCC(=O)O)C(=O)O)cc1`, for which the IC50 against Thymidylate synthase is 1900 nM; in the assay with L1210, above 100000 nM.

In the case of `C#CCN(Cc1ccc2nc(C)cc(C#N)c2c1)c1ccc(C(=O)N[C@@H](CCC(=O)O)C(=O)O)cc1`, the values for the IC50 at Thymidylate synthase and with L1210 were 1500 nM and 75000 nM, respectively. As to `CCN(Cc1ccc2nc(CO)cc(Cl)c2c1)c1ccc(C(=O)N[C@@H](CCC(=O)O)C(=O)O)cc1`, the figures for the IC50 against Thymidylate synthase and in the assay with L1210 were 1050 nM and above 100000 nM, respectively. Compound `C#CCN(Cc1ccc2nc(C)cc(C)c2c1)c1ccc(C(=O)N[C@@H](CCC(=O)O)C(=O)O)cc1` had an IC50 with L1210 above 100000 nM.

Take `C#CCN(Cc1ccc2nc(C)cc(O)c2c1)c1ccc(C(=O)N[C@@H](CCC(=O)O)C(=O)O)cc1`: the half-maximal inhibitory concentration (IC50) at Thymidylate synthase was 6300 nM; in the assay on L1210, above 100000 nM. On to `C#CCN(Cc1ccc2nc(CC)cc(Cl)c2c1)c1ccc(C(=O)N[C@@H](CCC(=O)O)C(=O)O)cc1`, for which the IC50 against Thymidylate synthase is 990 nM; in the assay on L1210 it was above 100000 nM. As to `C#CCN(Cc1ccc2nc(C(F)(F)F)cc(Cl)c2c1)c1ccc(C(=O)N[C@@H](CCC(=O)O)C(=O)O)cc1`, the IC50 is 150 nM at Thymidylate synthase and above 100000 nM in the assay with L1210. As for `C#CCN(Cc1ccc2nc(C)cc(Br)c2c1)c1ccc(C(=O)N[C@@H](CCC(=O)O)C(=O)O)c(F)c1`, the values for the IC50 against Thymidylate synthase and in the assay with L1210 were 96 nM and 1000 nM, respectively. On to `C#CCN(Cc1ccc2nc(C)ccc2c1)c1ccc(C(=O)N[C@@H](CCC(=O)O)C(=O)O)cc1`, for which the IC50 at Thymidylate synthase is 7900 nM; in the assay with L1210, above 100000 nM.

Turning to `C#CCN(Cc1ccc2nc(Cl)cc(Cl)c2c1)c1ccc(C(=O)N[C@@H](CCC(=O)O)C(=O)O)c(F)c1`, the IC50 was 23 nM against Thymidylate synthase and 1000 nM in the assay with L1210. As to `C#CCN(Cc1ccc2nc(Cl)cc(Cl)c2c1)c1ccc(C(=O)N[C@@H](CCC(=O)O)C(=O)O)cc1`, half-maximal inhibition with L1210 (IC50) was put at 8000 nM. `C#CCN(Cc1ccc2nc(C)cc(Br)c2c1)c1ccc(C(=O)N[C@@H](CCC(=O)O)C(=O)O)cc1`: the IC50 at Thymidylate synthase stood at 220 nM; in the assay with L1210, 14000 nM. `C#CCN(Cc1ccc2nc(Cl)cc(OC)c2c1)c1ccc(C(=O)N[C@@H](CCC(=O)O)C(=O)O)cc1`: the IC50 against Thymidylate synthase is 150 nM. Regarding `CCN(Cc1ccc2nc(C)cc(Cl)c2c1)c1ccc(C(=O)N[C@@H](CCC(=O)O)C(=O)O)cc1`, the IC50 against Thymidylate synthase turned out to be 740 nM; in the assay on L1210, 23000 nM. `Cc1cc(Cl)c2cc(CN(C)c3ccc(C(=O)N[C@@H](CCC(=O)O)C(=O)O)cc3)ccc2n1`: the IC50 stood at 2300 nM against Thymidylate synthase and 24000 nM in the assay with L1210. With `C#CCN(Cc1ccc2nc(C)cc(OC)c2c1)c1ccc(C(=O)N[C@@H](CCC(=O)O)C(=O)O)cc1`, the IC50 was 6000 nM on Thymidylate synthase and above 100000 nM in the assay on L1210. In the same order, the values of `C#CCN(Cc1ccc2nc(N)cc(C)c2c1)c1ccc(C(=O)N[C@@H](CCC(=O)O)C(=O)O)cc1` are 350 nM and 4000 nM. In the case of `C#CCN(Cc1ccc2nc(Cl)cc(C)c2c1)c1ccc(C(=O)N[C@@H](CCC(=O)O)C(=O)O)cc1`, the IC50 against Thymidylate synthase is 120 nM; with L1210, above 100000 nM. Take `C#CCN(Cc1ccc2nc(OC)cc(Cl)c2c1)c1ccc(C(=O)N[C@@H](CCC(=O)O)C(=O)O)cc1`: the figures for the IC50 at Thymidylate synthase and in the assay with L1210 were 9000 nM and above 100000 nM, respectively. In the same order, the values of `C#CCN(Cc1ccc2nc(N)cc(Cl)c2c1)c1ccc(C(=O)N[C@@H](CCC(=O)O)C(=O)O)c(F)c1` are 48 nM and 2900 nM. `Cc1cc(Cl)c2cc(CNc3ccc(C(=O)N[C@@H](CCC(=O)O)C(=O)O)cc3)ccc2n1`: the IC50 on Thymidylate synthase is 38000 nM; in the assay on L1210, above 100000 nM. As for `C#CCN(Cc1ccc2nc(NC(C)=O)cc(Cl)c2c1)c1ccc(C(=O)N[C@@H](CCC(=O)O)C(=O)O)cc1`, the IC50 was 1200 nM against Thymidylate synthase and above 100000 nM with L1210. Take `CCN(Cc1ccc2nc(N)cc(OC)c2c1)c1ccc(C(=O)N[C@@H](CCC(=O)O)C(=O)O)cc1`: the IC50 against Thymidylate synthase was 1900 nM; in the assay with L1210, 100000 nM.
